Measurements taken from patent US20060183221A1, “Method for neural differentiation of embryonic stem cells using protease passaging techniques” (priority 2003, published 2006).
Entries after “also recorded” stand apart in the source; their conditions may differ.

What was measured:
EB8-derived cells = test: Injection of ceramide analog treated EB8-derived stem cells into mouse brains, teratoma formation; format: in vivo; conditions: EB8-derived cells treated with 75 μM S18 for 24-48 hours, injected into brain of 8-10 day old C57BL6 mice, analysed after 7-21 days
Procedure: In vitro differentiating ES cells at stage EB8 were incubated for 24-48 hours with 75 μM S18, or 35 μM N-acyl sphingosine or other ceramide analogs. Protein was isolated from cells incubated with S18 for 24 hours and from untreated cells, separated by SDS-PAGE, and the expression of Oct4 was analyzed by immunoblotting.
Prior to injection into the mouse brain, ES cells were labeled with Vybrant-DiI (rhodamine fluorescence) for permanent vital staining and were mixed with India ink in order to track the injection channel and cell migration/tissue integration. 1×10^4 of the untreated ES-J1 cells were injected, while 2×10^4 of the S18-treated cells were injected in order to control for the percentage of cells lost to apoptosis. The ES cells were injected into the right brain hemisphere (bregma −1.5 mm, 1 mm lateral of central suture, 2.0 mm deep) of 8-10 day old C57BL6 mice using a Hamilton syringe. After 7-21 days, the mice were sacrificed, the brain isolated and fixed with 10% PBS-buffered formalin. The brains were Vibratome sectioned at 100 μm. The distribution of the injected cells was determined by fluorescence microscopy.

[1] = test system: seeded sfEBMs derived from domed HESC colonies; test: S18 treatment of seeded serum free embryoid bodies (sfEBMs), cell death by morphology and DAPI staining; format: cell-based, human
Excerpt: sfEBMs were derived from domed HESC colonies, grown in suspension for 24 days with one passage, and seeded to polyornithine/laminin coated chamber slides in DMEM/F12, supplemented with 1×N2 (Gibco), and 1% FCS.
Apoptosis in seeded serum free embryoid bodies was monitored by morphological observation of cell death and DAPI staining to reveal apoptotic nuclei. Apoptotic nuclei were observed as obviously fragmented and degenerating nuclei, with small punctuate patterns of DAPI staining. Rosette regions from essentially serum free embryoid bodies in suspension were passaged further in the same medium, either withdrawing S18 or culturing the embryoid bodies for an additional 4 to 8 days in the presence of S18. Rosette regions were then seeded onto polyornithine/laminin coated slides for analysis of proliferation and differentiation to neural lineages.

SSEA4 selected HESCs = test: Neural differentiation of SSEA4 selected bulk passaged HESCs as serum free embryoid bodies with or without MEDII and S18, seeded and immunostained; format: cell-based, human; conditions: with or without 10 μM S18 from day 13 to day 17
Procedure: Cultures were treated with or without 10 μM S18 from day 13 to day 17. After S18 treatment, serum free embryoid bodies were washed several times and cultured further until day 18. Serum free embryoid bodies were cut into pieces to seed down to polyornithine/laminin coated slides.
In the presence of MEDII, a consistently high proportion of the culture contained TH+ neurons, with the background of non-neural regions that was negative for the neuronal marker βIII-Tubulin typically lower than 10%. It was not determined whether the effect of MEDII induced more efficient neuralization or inhibited the generation of non-neural cell types. […] This proportion was determined by analysis of double staining of neural extensions for βIII-Tubulin and TH (FIG. 18), and overlaying Hoffman images with TH immunofluorescence (FIG. 19). The increase in the proportion of TH+ neurons in MEDII treated differentiations appeared to be due to the overall increase in neuronal differentiation, rather than an effect on the proportion of neurons that were dopaminergic, because the proportions of neurons that were TH+ in differentiations not exposed to MEDII was equally high. Another marker of DA cells, VMAT, was expressed in similarly high proportions of cells within the sfEBM cultures. TH+/VMAT−, TH−/VMAT+ and TH+/VMAT+ cells were observed (FIG. 20), possibly indicating temporal variability in the induction of expression of these markers prior to being co-expressed.

CCCCCCCC/C=C\CCCCCCCC(=O)NC(CO)CO [S18, N-(2-hydroxy-1-(hydroxymethyl)ethyl)-oleoylamide]
teratoma formation (EB8-derived cells): No teratomas were detected; also recorded: did not show the formation of teratomas | time until the effect was observed ([1]; 6, 8 or 10 μM S18): ≤ 24 h | effect on neural rosette structures ([1]; 6, 8 or 10 μM S18 for 36 hours): did not appear to be adversely affected | induction of apoptosis in the culture ([1]; 6, 8 or 10 μM S18 for 36 hours): induced apoptosis of a large proportion of the culture | cell death ([1]; 36 hours exposure to 6 μM S18): a high proportion of cells within these cultures have been killed | cell death ([1]; 36 hours exposure to 8 μM S18): a high degree of cell death is apparent | differences between S18− and S18+ cultures (sfEB, sfEBM) (SSEA4 selected HESCs): No gross morphological or immunocytochemical staining differences were observed
